Measured values from paper PMC13181761, “New Analogs of the Compstatin Family of Clinical Complement Inhibitors with Low Picomolar Target Affinity” (Journal of Medicinal Chemistry, 2026).
pKd: −log10 of the molar value. Where two headings read alike, the source gives them in different places. Where a SMILES comes first, the peptide text is derived from it. Bridges are numbered along the chain shown (N, C = ends). [ ]: non-standard residue; d: D form. Bta = N[C@@H](Cc1csc2ccccc12)C(=O)O; Asu = N[C@@H](CCCCCC(=O)O)C(=O)O; Orn = NCCC[C@H](N)C(=O)O

Molecular target: T1, human C3b (Homo sapiens, UniProt P01024)
T1 construct: purchased Complement Technology, Tyler, TX, USA
T1 sequence (P01024 23-667 limits assumed): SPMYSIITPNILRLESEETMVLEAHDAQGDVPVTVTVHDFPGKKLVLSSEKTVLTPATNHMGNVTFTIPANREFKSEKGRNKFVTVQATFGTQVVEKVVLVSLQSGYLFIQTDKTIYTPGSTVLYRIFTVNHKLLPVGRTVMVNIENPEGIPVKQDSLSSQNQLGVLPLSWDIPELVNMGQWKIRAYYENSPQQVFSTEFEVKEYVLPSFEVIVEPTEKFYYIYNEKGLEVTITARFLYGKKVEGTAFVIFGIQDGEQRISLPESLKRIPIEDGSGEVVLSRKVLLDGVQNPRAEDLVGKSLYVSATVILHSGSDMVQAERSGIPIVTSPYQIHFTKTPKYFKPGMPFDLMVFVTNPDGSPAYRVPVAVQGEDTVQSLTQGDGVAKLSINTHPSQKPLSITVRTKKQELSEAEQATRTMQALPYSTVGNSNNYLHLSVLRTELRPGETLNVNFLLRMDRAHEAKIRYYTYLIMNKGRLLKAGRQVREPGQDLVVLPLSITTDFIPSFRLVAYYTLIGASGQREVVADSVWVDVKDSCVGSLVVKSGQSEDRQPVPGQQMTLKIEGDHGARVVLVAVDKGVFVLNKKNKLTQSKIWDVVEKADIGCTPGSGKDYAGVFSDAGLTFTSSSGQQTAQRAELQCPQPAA
T1 sequence (P01024 749-1663 partner limits assumed): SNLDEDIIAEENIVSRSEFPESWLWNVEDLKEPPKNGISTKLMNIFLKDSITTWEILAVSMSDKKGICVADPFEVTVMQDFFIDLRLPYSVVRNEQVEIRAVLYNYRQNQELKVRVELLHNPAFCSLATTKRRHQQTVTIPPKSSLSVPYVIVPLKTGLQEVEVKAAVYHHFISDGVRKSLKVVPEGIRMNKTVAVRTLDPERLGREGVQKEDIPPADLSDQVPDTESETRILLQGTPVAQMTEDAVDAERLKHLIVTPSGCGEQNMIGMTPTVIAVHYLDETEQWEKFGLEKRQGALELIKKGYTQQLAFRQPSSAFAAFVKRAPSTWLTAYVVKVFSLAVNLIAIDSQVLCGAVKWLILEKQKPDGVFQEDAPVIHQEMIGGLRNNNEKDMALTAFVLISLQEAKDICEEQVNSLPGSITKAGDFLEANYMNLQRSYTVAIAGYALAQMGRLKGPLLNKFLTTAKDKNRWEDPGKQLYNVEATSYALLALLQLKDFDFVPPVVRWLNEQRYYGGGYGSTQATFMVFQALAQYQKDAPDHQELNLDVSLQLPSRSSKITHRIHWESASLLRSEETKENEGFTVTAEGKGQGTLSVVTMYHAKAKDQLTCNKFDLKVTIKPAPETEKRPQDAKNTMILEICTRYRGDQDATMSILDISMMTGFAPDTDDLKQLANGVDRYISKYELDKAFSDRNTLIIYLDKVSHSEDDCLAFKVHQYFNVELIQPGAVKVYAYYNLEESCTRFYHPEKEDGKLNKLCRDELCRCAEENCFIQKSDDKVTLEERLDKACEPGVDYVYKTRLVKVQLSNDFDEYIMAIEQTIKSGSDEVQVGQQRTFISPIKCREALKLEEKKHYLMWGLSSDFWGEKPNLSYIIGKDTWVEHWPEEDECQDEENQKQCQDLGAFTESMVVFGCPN
Assay: SPR kinetic binding to immobilized human C3b
Settings: for fold affinity drop / weaker affinity compared with Cp01: K D ratio vs Cp01
Protocol: Experiments were conducted at 25 °C in HBST buffer (10 mM HEPES, 150 mM NaCl, and 0.05% Tween-20, pH 7.4; XanTec bioanalytics). Human C3b (Complement Technology, Tyler, TX, USA) was immobilized via amine-reactive coupling. […] Individual peptide samples were injected for 120 s, followed by a 180 s dissociation phase. […] Signals from the reference cell and buffer blank injections were subtracted within each dilution series to correct for buffer effects and injection artifacts. Data were fitted to a Langmuir 1:1 binding model to calculate association (k a) and dissociation (k d) rate constants, and the equilibration constant K D is calculated based on the equation: K D = k d/k a. In the case of Cp40 derivatives and Cp60, a single-cycle approach was used for kinetic analysis by injecting 5 increasing concentrations of each compound (0.5-40 nM) consecutively without a regeneration period in between injections. Individual injections within a cycle were 120 s long with a 5 min dissociation phase between injections. […] Analog Cp40 was included in each experimental series as a reference and internal control. Signals from the reference cell and buffer blank injections were subtracted to correct for buffer effects and injection artifacts. Kinetic data were processed in BiaEvaluation (Cytiva) using single-cycle evaluation by global fitting each data set to a Langmuir 1:1 binding model. The reported kinetic parameters (Tables and ) indicate the mean values and standard deviations of three independent experiments. SPR sensorgrams are provided in the Supporting Information.

[1] = SPR screening at 2 and 1 μM, series up to 16 μM, read-out: affinity hC3b (class symbol N.B./W.B.)
[2] = SPR, 1:1 Langmuir fit, average of 3 independent experiments, SD in brackets
[3] = SPR, 1:1 Langmuir fit, average of 3 independent experiments, SD in brackets, read-out: K D, affinity hC3b

| SMILES | pKd [1] | fold affinity drop / weaker affinity compared with Cp01 [fold] | k a, affinity hC3b [2] | k d, affinity hC3b [2] | pKd [3] | binding to C3b (result in words) (SPR) | binding to C3b (result in words) (SPR, listed as W7Bta) |
| --- | --- | --- | --- | --- | --- | --- | --- |
| CC[C@H](C)[C@H](NC(C)=O)C(=O)N[C@H]1CSSC[C@@H](C(=O)N[C@H](C(N)=O)[C@@H](C)O)NC(=O)[C@H](CCCNC(=N)N)NC(=O)[C@H](Cc2c[nH]cn2)NC(=O)[C@H](C)NC(=O)CNC(=O)[C@H](Cc2c[nH]c3ccccc23)NC(=O)[C@H](CC(=O)O)NC(=O)[C@H](CCC(N)=O)NC(=O)[C@H](Cc2c[nH]c3ccccc23)NC(=O)[C@H](Cc2ccc(O)cc2)NC1=O [Cp01 Val3Tyr] (Ac-ICYWQDWGAHRCT-NH2; disulfide 2-12) | < 5.70 | – | – | – | – | – | – |
| CC[C@H](C)[C@H](NC(C)=O)C(=O)N[C@H]1CSSC[C@@H](C(=O)N[C@H](C(N)=O)[C@@H](C)O)NC(=O)[C@H](CCCCN)NC(=O)[C@H](Cc2c[nH]cn2)NC(=O)[C@H](C)NC(=O)CNC(=O)[C@H](Cc2c[nH]c3ccccc23)NC(=O)[C@H](CC(=O)O)NC(=O)[C@H](CCC(N)=O)NC(=O)[C@H](Cc2c[nH]c3ccccc23)NC(=O)[C@H](C(C)C)NC1=O [Cp01-Arg11Lys] (Ac-ICVWQDWGAHKCT-NH2; disulfide 2-12) | – | ~2 | 3.0(0.8) 10^5 M^–1 s^–1 | 15(2) 10^–2 s^–1 | 6.30 | – | – |
| CC[C@H](C)[C@H](NC(C)=O)C(=O)N[C@H]1CSSC[C@@H](C(=O)N[C@H](C(N)=O)[C@@H](C)O)NC(=O)[C@H](CO)NC(=O)[C@H](Cc2c[nH]cn2)NC(=O)[C@H](C)NC(=O)CNC(=O)[C@H](Cc2c[nH]c3ccccc23)NC(=O)[C@H](CC(=O)O)NC(=O)[C@H](CCC(N)=O)NC(=O)[C@H](Cc2c[nH]c3ccccc23)NC(=O)[C@H](C(C)C)NC1=O [Cp01-Arg11Ser] (Ac-ICVWQDWGAHSCT-NH2; disulfide 2-12) | – | ~2 | 3.3(1.2) 10^5 M^–1 s^–1 | 16(3) 10^–2 s^–1 | 6.28 | – | – |
| CC[C@H](C)[C@H](NC(C)=O)C(=O)N[C@H]1CSSC[C@@H](C(=O)N[C@H](C(N)=O)[C@@H](C)O)NC(=O)[C@H](CCCNC(=N)N)NC(=O)[C@H](Cc2c[nH]cn2)NC(=O)[C@H](C)NC(=O)CNC(=O)[C@H](Cc2c[nH]c3ccccc23)NC(=O)[C@H](CC(N)=O)NC(=O)[C@H](CCC(N)=O)NC(=O)[C@H](Cc2c[nH]c3ccccc23)NC(=O)[C@H](C(C)C)NC1=O [Cp01-Asp6Asn] (Ac-ICVWQNWGAHRCT-NH2; disulfide 2-12) | – | – | 5.4(1.5) 10^5 M^–1 s^–1 | 11(1) 10^–2 s^–1 | 6.66 | – | – |
| CC[C@H](C)[C@H](NC(C)=O)C(=O)N[C@H]1CSSC[C@@H](C(=O)N[C@H](C(N)=O)[C@@H](C)O)NC(=O)[C@H](CCCNC(=N)N)NC(=O)[C@H](Cc2c[nH]cn2)NC(=O)[C@H](C)NC(=O)CNC(=O)[C@H](Cc2c[nH]c3ccccc23)NC(=O)[C@H](CCCCCC(=O)O)NC(=O)[C@H](CCC(N)=O)NC(=O)[C@H](Cc2c[nH]c3ccccc23)NC(=O)[C@H](C(C)C)NC1=O [Cp01-Asp6Asu] (Ac-ICVWQ[Asu]WGAHRCT-NH2; disulfide 2-12) | – | 10 | 1.2(0.5) 10^5 M^–1 s^–1 | 23(4) 10^–2 s^–1 | – | – | – |
| CC[C@H](C)[C@H](NC(C)=O)C(=O)N[C@H]1CSSC[C@@H](C(=O)N[C@H](C(N)=O)[C@@H](C)O)NC(=O)[C@H](CCCNC(=N)N)NC(=O)[C@H](Cc2c[nH]cn2)NC(=O)[C@H](C)NC(=O)CNC(=O)[C@H](Cc2c[nH]c3ccccc23)NC(=O)[C@H](CCC(=O)O)NC(=O)[C@H](CCC(N)=O)NC(=O)[C@H](Cc2c[nH]c3ccccc23)NC(=O)[C@H](C(C)C)NC1=O [Cp01-Asp6Glu] (Ac-ICVWQEWGAHRCT-NH2; disulfide 2-12) | – | 2 | 3.8(1.6) 10^5 M^–1 s^–1 | 18(2) 10^–2 s^–1 | 6.28 | – | – |
| CC[C@H](C)[C@H](NC(C)=O)C(=O)N[C@H]1CSSC[C@@H](C(=O)N[C@H](C(N)=O)[C@@H](C)O)NC(=O)[C@H](CCCNC(=N)N)NC(=O)[C@H](Cc2c[nH]cn2)NC(=O)[C@H](C)NC(=O)CNC(=O)[C@H](Cc2c[nH]c3ccccc23)NC(=O)[C@H](CO)NC(=O)[C@H](CCC(N)=O)NC(=O)[C@H](Cc2c[nH]c3ccccc23)NC(=O)[C@H](C(C)C)NC1=O [Cp01-Asp6Ser] (Ac-ICVWQSWGAHRCT-NH2; disulfide 2-12) | – | – | 3.1(0.9) 10^5 M^–1 s^–1 | 18(3) 10^–2 s^–1 | 6.22 | – | – |
| CC[C@H](C)[C@H](NC(C)=O)C(=O)N[C@H]1CSSC[C@@H](C(=O)N[C@H](C(N)=O)[C@@H](C)O)NC(=O)[C@H](CCCNC(=N)N)NC(=O)[C@H](Cc2c[nH]cn2)NC(=O)[C@H](C)NC(=O)CNC(=O)[C@H](Cc2c[nH]c3ccccc23)NC(=O)[C@H](CC(=O)O)NC(=O)[C@H](CCCCN)NC(=O)[C@H](Cc2c[nH]c3ccccc23)NC(=O)[C@H](C(C)C)NC1=O [Cp01-Gln5Lys] (Ac-ICVWKDWGAHRCT-NH2; disulfide 2-12) | < 5.70 | – | – | – | – | no detectable target binding | – |
| CC[C@H](C)[C@H](NC(C)=O)C(=O)N[C@H]1CSSC[C@@H](C(=O)N[C@H](C(N)=O)[C@@H](C)O)NC(=O)[C@H](CCCNC(=N)N)NC(=O)[C@H](Cc2c[nH]cn2)NC(=O)[C@H](C)NC(=O)CNC(=O)[C@H](Cc2c[nH]c3ccccc23)NC(=O)[C@H](CC(=O)O)NC(=O)[C@H](CCCN)NC(=O)[C@H](Cc2c[nH]c3ccccc23)NC(=O)[C@H](C(C)C)NC1=O [Cp01-Gln5Orn] (Ac-ICVW[Orn]DWGAHRCT-NH2; disulfide 2-12) | < 5.70 | – | – | – | – | no detectable target binding | – |
| CC[C@H](C)[C@H](NC(C)=O)C(=O)N[C@H]1CSSC[C@@H](C(=O)N[C@H](C(N)=O)[C@@H](C)O)NC(=O)[C@H](CCCNC(=N)N)NC(=O)[C@H](Cc2c[nH]cn2)NC(=O)[C@H](C)NC(=O)[C@H](C)NC(=O)[C@H](Cc2c[nH]c3ccccc23)NC(=O)[C@H](CC(=O)O)NC(=O)[C@H](CCC(N)=O)NC(=O)[C@H](Cc2c[nH]c3ccccc23)NC(=O)[C@H](C(C)C)NC1=O [Cp01-Gly8Ala] (Ac-ICVWQDWAAHRCT-NH2; disulfide 2-12) | < 5.70 | – | – | – | – | diminished target binding | – |
| CC[C@H](C)[C@H](NC(C)=O)C(=O)N[C@H]1CSSC[C@@H](C(=O)N[C@H](C(N)=O)[C@@H](C)O)NC(=O)[C@H](CCCNC(=N)N)NC(=O)[C@H](Cc2c[nH]cn2)NC(=O)[C@H](C)NC(=O)[C@@H](C)NC(=O)[C@H](Cc2c[nH]c3ccccc23)NC(=O)[C@H](CC(=O)O)NC(=O)[C@H](CCC(N)=O)NC(=O)[C@H](Cc2c[nH]c3ccccc23)NC(=O)[C@H](C(C)C)NC1=O [Cp01-Gly8dAla] (Ac-ICVWQDW[dA]AHRCT-NH2; disulfide 2-12) | < 4.80 | – | – | – | – | diminished target binding | – |
| CC[C@H](C)[C@H](NC(C)=O)C(=O)N[C@H]1CSSC[C@@H](C(=O)N[C@H](C(N)=O)[C@@H](C)O)NC(=O)[C@H](CCCNC(=N)N)NC(=O)[C@H](Cc2c[nH]cn2)NC(=O)[C@H](C)NC(=O)CNC(=O)[C@H](Cc2csc3ccccc23)NC(=O)[C@H](CC(=O)O)NC(=O)[C@H](CCC(N)=O)NC(=O)[C@H](Cc2c[nH]c3ccccc23)NC(=O)[C@H](C(C)C)NC1=O [Cp01-Trp7Bta] (Ac-ICVWQD[Bta]GAHRCT-NH2; disulfide 2-12) | < 4.80 | – | – | – | – | – | strongly impaired affinity |
